# Laboratory results as given in patent publication US20060128792A1, “Deguelin as a chemopreventive agent for lung cancer” (priority 2002, published 2006).
# “And” between values parts separate entries of the source, which are not always exact repeats. Identical values can stand only once.
# Experiments:
# Format in all cases: cell-based
# H358 = assay: MTT assay, growth inhibition by deguelin or deguelin derivatives; details: 3 days
# H460 = assay: as above; details: 3 days
# A549 = assay: as above; details: 3 days
# H322 = assay: as above; details: 3 days
# H596 = assay: as above; details: 3 days
# H1299 = assay: as above; details: 3 days
# NSCLC cells = assay: MTT assay, growth inhibition of NSCLC cells by deguelin and deguelin derivatives (Table 2, FIG. 7); details: 0.01-1 μM, 3 days
compound,measurement,setting,value
C=C(C)[C@H]1Cc2c(ccc3c2O[C@@H]2COc4cc(OC)c(OC)cc4[C@@H]2C3=O)O1 [rotenone],"MTT assay reading, Average","H358; H358, 0.01 μM",0.3171
same,"MTT assay reading, individual replicate","H358; H358, 0.01 μM",0.298 and 0.253 and 0.268 and 0.348 and 0.331 and 0.329 and 0.393
same,"MTT assay reading, Average","H358; H358, 0.1 μM",0.309
same,"MTT assay reading, individual replicate","H358; H358, 0.1 μM",0.257 and 0.27 and 0.281 and 0.311 and 0.338 and 0.371 and 0.335
same,"MTT assay reading, Average","H358; H358, 0.5 μM",0.2334
same,"MTT assay reading, individual replicate","H358; H358, 0.5 μM",0.263 and 0.209 and 0.189 and 0.244 and 0.198 and 0.235 and 0.296
same,"MTT assay reading, Average","H358; H358, 1 μM",0.2736
same,"MTT assay reading, individual replicate","H358; H358, 1 μM",0.308 and 0.205 and 0.243 and 0.287 and 0.258 and 0.247 and 0.367
same,% control,"H460; H460, 0.01 μM",0.14%
same,"MTT assay reading, Average","H460; H460, 0.01 μM",0.2486
same,"MTT assay reading, individual replicate","H460; H460, 0.01 μM",0.092 and 0.412 and 0.24 and 0.191 and 0.228 and 0.242 and 0.335
same,% control,"H460; H460, 0.1 μM",0.10%
same,"MTT assay reading, Average","H460; H460, 0.1 μM",0.1766
same,"MTT assay reading, individual replicate","H460; H460, 0.1 μM",0.143 and 0.107 and 0.138 and 0.161 and 0.242 and 0.268 and 0.177
same,% control,"H460; H460, 0.5 μM",0.09%
same,"MTT assay reading, Average","H460; H460, 0.5 μM",0.1499
same,"MTT assay reading, individual replicate","H460; H460, 0.5 μM",0.185 and 0.159 and 0.143 and 0.1 and 0.104 and 0.117 and 0.241
same,% control,"H460; H460, 1 μM",0.10%
same,"MTT assay reading, Average","H460; H460, 1 μM",0.1763
same,"MTT assay reading, individual replicate","H460; H460, 1 μM",0.071 and 0.467 and 0.127 and 0.144 and 0.138 and 0.118 and 0.169
same,% control,"A549; A549, 0.01 μM",0.35%
same,"MTT assay reading, Average","A549; A549, 0.01 μM",0.463
same,"MTT assay reading, individual replicate","A549; A549, 0.01 μM",0.425 and 0.439 and 0.541 and 0.451 and 0.45 and 0.428 and 0.507
same,% control,"A549; A549, 0.1 μM",0.27%
same,"MTT assay reading, Average","A549; A549, 0.1 μM",0.3653
same,"MTT assay reading, individual replicate","A549; A549, 0.1 μM",0.418 and 0.293 and 0.364 and 0.26 and 0.429 and 0.354 and 0.439
same,% control,"A549; A549, 0.5 μM",0.27%
same,"MTT assay reading, Average","A549; A549, 0.5 μM",0.3657
same,"MTT assay reading, individual replicate","A549; A549, 0.5 μM",0.284 and 0.833 and 0.266 and 0.314 and 0.246 and 0.308 and 0.309
same,% control,"A549; A549, 1 μM",0.13%
same,"MTT assay reading, Average","A549; A549, 1 μM",0.1791
same,"MTT assay reading, individual replicate","A549; A549, 1 μM",0.188 and 0.171 and 0.176 and 0.213 and 0.173 and 0.141 and 0.192
same,"MTT assay reading, Average","H322; H322, 0.01 μM",0.4327
same,"MTT assay reading, individual replicate","H322; H322, 0.01 μM",0.477 and 0.569 and 0.498 and 0.266 and 0.304 and 0.489 and 0.426
same,"MTT assay reading, Average","H322; H322, 0.1 μM",0.3726
same,"MTT assay reading, individual replicate","H322; H322, 0.1 μM",0.414 and 0.357 and 0.41 and 0.408 and 0.319 and 0.361 and 0.339
same,"MTT assay reading, Average","H322; H322, 0.5 μM",0.322
same,"MTT assay reading, individual replicate","H322; H322, 0.5 μM",0.262 and 0.328 and 0.307 and 0.34 and 0.378 and 0.353 and 0.286
same,"MTT assay reading, Average","H322; H322, 1 μM",0.2547
same,"MTT assay reading, individual replicate","H322; H322, 1 μM",0.229 and 0.223 and 0.225 and 0.288 and 0.226 and 0.338 and 0.254
same,"MTT assay reading, Average","H596; H596, 0.01 μM",0.4666
same,"MTT assay reading, individual replicate","H596; H596, 0.01 μM",0.393 and 0.433 and 0.462 and 0.499 and 0.497 (2×) and 0.485
same,"MTT assay reading, Average","H596; H596, 0.1 μM",0.3784
same,"MTT assay reading, individual replicate","H596; H596, 0.1 μM",0.271 and 0.369 and 0.513 and 0.582 and 0.413 and 0.285 and 0.216
same,"MTT assay reading, Average","H596; H596, 0.5 μM",0.2329
same,"MTT assay reading, individual replicate","H596; H596, 0.5 μM",0.189 and 0.362 and 0.261 and 0.296 and 0.156 and 0.203 and 0.163
same,"MTT assay reading, Average","H596; H596, 1 μM",0.177
same,"MTT assay reading, individual replicate","H596; H596, 1 μM",0.205 (2×) and 0.123 and 0.193 and 0.172 and 0.161 and 0.18
same,"MTT assay reading, Average","H1299; H1299, 0.01 μM",0.2794
same,"MTT assay reading, individual replicate","H1299; H1299, 0.01 μM",0.249 and 0.392 and 0.221 and 0.209 and 0.261 and 0.311 and 0.313
same,"MTT assay reading, Average","H1299; H1299, 0.1 μM",0.1907
same,"MTT assay reading, individual replicate","H1299; H1299, 0.1 μM",0.25 and 0.3 and 0.158 and 0.09 and 0.125 and 0.235 and 0.177
same,"MTT assay reading, Average","H1299; H1299, 0.5 μM",0.2391
same,"MTT assay reading, individual replicate","H1299; H1299, 0.5 μM",0.308 and 0.259 and 0.248 and 0.197 and 0.195 and 0.179 and 0.288
same,"MTT assay reading, Average","H1299; H1299, 1 μM",0.2753
same,"MTT assay reading, individual replicate","H1299; H1299, 1 μM",0.226 and 0.193 and 0.23 and 0.175 and 0.76 and 0.148 and 0.195
COc1cc2c(cc1OC)[C@]1(O)C(=O)c3ccc4c(c3O[C@@H]1CO2)C=CC(C)(C)O4 [tephrosin],"MTT assay reading, Average","H358; H358, 0.01 μM",0.6206
same,"MTT assay reading, individual replicate","H358; H358, 0.01 μM",0.508 and 0.601 and 0.658 and 0.674 and 0.608 and 0.59 and 0.705
same,"MTT assay reading, Average","H358; H358, 0.1 μM",0.5327
same,"MTT assay reading, individual replicate","H358; H358, 0.1 μM",0.522 and 0.496 (2×) and 0.558 and 0.516 and 0.579 and 0.562
same,"MTT assay reading, Average","H358; H358, 0.5 μM",0.1047
same,"MTT assay reading, individual replicate","H358; H358, 0.5 μM",0.054 and 0.048 and 0.1 and 0.105 and 0.117 and 0.147 and 0.162
same,"MTT assay reading, Average","H358; H358, 1 μM",0.2634
same,"MTT assay reading, individual replicate","H358; H358, 1 μM",0.245 and 0.233 and 0.332 and 0.139 and 0.234 and 0.293 and 0.368
same,% control,"H460; H460, 0.01 μM",0.05%
same,"MTT assay reading, Average","H460; H460, 0.01 μM",0.0956
same,"MTT assay reading, individual replicate","H460; H460, 0.01 μM",0.072 and 0.051 and 0.097 and 0.1 and 0.105 and 0.132 and 0.112
same,% control,"H460; H460, 0.1 μM",0.05%
same,"MTT assay reading, Average","H460; H460, 0.1 μM",0.0816
same,"MTT assay reading, individual replicate","H460; H460, 0.1 μM",0.072 and 0.067 and 0.086 (2×) and 0.112 and 0.056 and 0.092
same,% control,"H460; H460, 0.5 μM",0.08%
same,"MTT assay reading, Average","H460; H460, 0.5 μM",0.141
same,"MTT assay reading, individual replicate","H460; H460, 0.5 μM",0.088 and 0.113 (2×) and 0.159 and 0.16 and 0.19 and 0.164
same,% control,"H460; H460, 1 μM",0.10%
same,"MTT assay reading, Average","H460; H460, 1 μM",0.1819
same,"MTT assay reading, individual replicate","H460; H460, 1 μM",0.162 and 0.184 and 0.154 and 0.272 and 0.183 and 0.133 and 0.185
same,% control,"A549; A549, 0.01 μM",0.16%
same,"MTT assay reading, Average","A549; A549, 0.01 μM",0.2403
same,"MTT assay reading, individual replicate","A549; A549, 0.01 μM",0.274 and 0.196 and 0.223 and 0.284 and 0.229 and 0.252 and 0.224
same,% control,"A549; A549, 0.1 μM",0.17%
same,"MTT assay reading, Average","A549; A549, 0.1 μM",0.248
same,"MTT assay reading, individual replicate","A549; A549, 0.1 μM",0.161 and 0.279 and 0.299 and 0.218 and 0.262 and 0.236 and 0.281
same,% control,"A549; A549, 0.5 μM",0.17%
same,"MTT assay reading, Average","A549; A549, 0.5 μM",0.255
same,"MTT assay reading, individual replicate","A549; A549, 0.5 μM",0.299 and 0.243 and 0.26 and 0.217 (2×) and 0.305 and 0.244
same,% control,"A549; A549, 1 μM",0.23%
same,"MTT assay reading, Average","A549; A549, 1 μM",0.3313
same,"MTT assay reading, individual replicate","A549; A549, 1 μM",0.434 and 0.15 and 0.366 and 0.295 and 0.386 and 0.341 and 0.347
same,"MTT assay reading, Average","H322; H322, 0.01 μM",0.6627
same,"MTT assay reading, individual replicate","H322; H322, 0.01 μM",0.527 and 0.596 and 0.713 and 0.655 and 0.68 and 0.721 and 0.747
same,"MTT assay reading, Average","H322; H322, 0.1 μM",0.7197
same,"MTT assay reading, individual replicate","H322; H322, 0.1 μM",0.685 and 0.659 and 0.726 and 0.643 and 0.732 and 0.795 and 0.798
same,"MTT assay reading, Average","H322; H322, 0.5 μM",0.1343
same,"MTT assay reading, individual replicate","H322; H322, 0.5 μM",0.113 and 0.109 (2×) and 0.12 and 0.117 and 0.162 and 0.21
same,"MTT assay reading, Average","H322; H322, 1 μM",0.2089
same,"MTT assay reading, individual replicate","H322; H322, 1 μM",0.223 and 0.216 (3×) and 0.182 and 0.168 and 0.241
same,"MTT assay reading, Average","H596; H596, 0.01 μM",0.1156
same,"MTT assay reading, individual replicate","H596; H596, 0.01 μM",0.062 and 0.127 and 0.078 and 0.138 (2×) and 0.103 and 0.163
same,"MTT assay reading, Average","H596; H596, 0.1 μM",0.0826
same,"MTT assay reading, individual replicate","H596; H596, 0.1 μM",0.082 and 0.062 and 0.066 and 0.095 and 0.09 and 0.058 and 0.125
same,"MTT assay reading, Average","H596; H596, 0.5 μM",0.1631
same,"MTT assay reading, individual replicate","H596; H596, 0.5 μM",0.137 and 0.159 and 0.151 and 0.111 and 0.158 and 0.076 and 0.35
same,"MTT assay reading, Average","H596; H596, 1 μM",0.1983
same,"MTT assay reading, individual replicate","H596; H596, 1 μM",0.287 and 0.257 and 0.172 and 0.151 and 0.215 and 0.131 and 0.175
same,"inhibiting cell growth in NSCLC cells, ranking among the derivatives",NSCLC cells,most effective
same,"MTT assay reading, Average","H1299; H1299, 0.01 μM",0.4143
same,"MTT assay reading, individual replicate","H1299; H1299, 0.01 μM",0.38 and 0.248 and 0.428 and 0.399 and 0.471 and 0.527 and 0.447
same,"MTT assay reading, Average","H1299; H1299, 0.1 μM",0.7746
same,"MTT assay reading, individual replicate","H1299; H1299, 0.1 μM",0.795 and 0.806 and 0.783 and 0.784 and 0.956 and 0.491 and 0.807
same,"MTT assay reading, Average","H1299; H1299, 0.5 μM",0.1507
same,"MTT assay reading, individual replicate","H1299; H1299, 0.5 μM",0.135 and 0.147 and 0.166 and 0.204 and 0.179 and 0.097 and 0.127
same,"MTT assay reading, Average","H1299; H1299, 1 μM",0.2739
same,"MTT assay reading, individual replicate","H1299; H1299, 1 μM",0.261 and 0.279 and 0.255 and 0.26 and 0.36 and 0.183 and 0.319
bromorot-2′-enoic acid,"inhibiting cell growth in NSCLC cells, ranking among the derivatives",NSCLC cells,most effective
